This note sets out measurements from patent US7214395B2, “Pharmaceutical and cosmetic composition against skin aging” (Indena S.p.A., priority 2001, dated 2007).

This assay deals with fibroblasts. Nature of the assay: collagen metabolism / amino acid up-take by fibroblasts. The format is cell-based. An excerpt:
[…]. An improved synthesis of collagen means a faster substitution of the degraded old fibers of collagen with the new ones.

Molecules are shown by their SMILES.

With `C[C@H]1[C@H](C)CC[C@]2(C(=O)O)CC[C@]3(C)C(=CC[C@@H]4[C@@]5(C)C[C@@H](O)[C@H](O)[C@@](C)(CO)[C@@H]5CC[C@]43C)[C@H]12` [asiatic acid], the “activity on collagen metabolism” value is “strong activity”; the “capability of the fibroblasts to up-take amino acids such as L-Proline and L-Hydroxyproline” value is on record as “improve”.

In the case of `C[C@H]1[C@H](C)CC[C@]2(C(=O)O)CC[C@]3(C)C(=CC[C@@H]4[C@@]5(C)C[C@@H](O)[C@H](O)[C@@](C)(CO)[C@@H]5[C@H](O)C[C@]43C)[C@H]12` [madecassic acid], the “activity on collagen metabolism” value was “strong activity”; the “capability of the fibroblasts to up-take amino acids such as L-Proline and L-Hydroxyproline” value is given as “improve”.
